Assay: Calcein dye leakage assay
Assay type: biochemical
Settings: pure DTT 30 mM without CPNT
Experimental: This was tested by studying the interaction of our CPNT with synthetic liposomes. A mixture of phosphatidylethanolamine and phosphatidylglycerol was used to simulate the cytosolic membrane of E. coli.[35] Vesicles were loaded with self-quenching concentrations of a fluorescent dye (calcein). This allows to detect disruption of the bilayer, as dye release from the liposomes and the resulting dilution leads to an increase in fluorescence (Scheme S4 ^†).
The fit (Figure S25) was performed with R, Rg, N agg, l and N as adjustable parameter.
Table S2. Fitting parameters for 24 using a form factor of a micelle with a spherical core […]
Rg, corona b 16.6 Å parameters
Vcore (single unit) c 300 Å3 […]
Background subtracted 5 × 10 -2 cm-1 a The radius of the core was calculated from the volume of the whole core given by the volume of the core of a single unit multiplied with the number of aggregation (N agg); b Radius of gyration (R g) of a single chain in the corona; c The Volume of a single cyclic peptide in the core or polymer corona (PEtOx) was estimated from the Mn, divided by the Avogadro constant and assuming a density of 1 g/cm 3, d The scattering lengths density (SLD) of the materials was calculated using the calculator given in SASfit; […]
Formation of vesicles. […]

## O[C@@H](CS)[C@@H](O)CS (racemic) [DTT, 1,4-dithiothreitol]
  Effect of DTT alone on fluorescence intensity (calcein release): no effect on the fluorescence intensity

From publication PMC6544120, “Stimuli-responsive membrane activity of cyclic-peptide–polymer conjugates” (Chemical Science, 2019)
